Experimental data reported in paper PMC8218635, “Structural Insights into the Mechanisms of Action of Functionally Distinct Classes of Chikungunya Virus Nonstructural Protein 1 Inhibitors” (Antimicrobial Agents and Chemotherapy, 2021).
Like-named read-outs stand apart in the source and are kept apart here.

Columns and labels:
in vitro = conditions: African green monkey
rCHIKV P34S = assay type: cell-based, Chikungunya virus; conditions: for Fold resistance, rCHIKV P34S: (EC50 for the variant)/(EC50 for the wt); for EC50: CPE reduction assay, Vero E6 cells; for Sensitivity or resistance of CHIKV nsP1-P34S to the compound: at the concentrations tested, Fig. 2
rCHIKV G230R + K299E = assay type: cell-based, Chikungunya virus; conditions: for Fold resistance, rCHIKV G230R + K299E: (EC50 for the variant)/(EC50 for the wt); for EC50: CPE reduction assay, Vero E6 cells; for Sensitivity or resistance of CHIKV nsP1-G230R+K299E to the compound: Fig. 2
CHIKV = assay: microbe, parasite or virus in culture; assay type: cell-based
wt SFV nsP1 [1] = biological target: T1, wt SFV nsP1 (Semliki forest virus, UniProt P08411); parameters: method as in PMID 31964798; conditions: cited from earlier work
T1 sequence (P08411 1-537 limits assumed): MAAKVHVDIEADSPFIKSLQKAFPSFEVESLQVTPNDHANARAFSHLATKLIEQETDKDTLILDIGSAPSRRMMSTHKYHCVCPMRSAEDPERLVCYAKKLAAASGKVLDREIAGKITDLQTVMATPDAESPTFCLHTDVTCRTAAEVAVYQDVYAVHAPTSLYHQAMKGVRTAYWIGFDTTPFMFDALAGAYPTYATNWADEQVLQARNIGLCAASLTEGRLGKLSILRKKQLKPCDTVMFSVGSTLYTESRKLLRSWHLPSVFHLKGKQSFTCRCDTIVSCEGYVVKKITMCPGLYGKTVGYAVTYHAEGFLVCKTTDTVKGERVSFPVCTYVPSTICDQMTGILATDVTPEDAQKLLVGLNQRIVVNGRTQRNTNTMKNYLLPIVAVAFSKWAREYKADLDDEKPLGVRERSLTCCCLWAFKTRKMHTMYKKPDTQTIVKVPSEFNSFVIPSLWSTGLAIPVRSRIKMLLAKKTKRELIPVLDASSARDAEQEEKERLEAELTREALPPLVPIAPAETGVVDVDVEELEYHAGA

SINV = tested on: SINV; parameters: method as in PMID 31964798; conditions: cited from earlier work
SFV = assay: microbe, parasite or virus in culture; assay type: cell-based; conditions: multicycle CPE reduction assay, Vero E6 cells, NA = not active
rCHIKV S454G + W456R = assay type: cell-based, Chikungunya virus; conditions: for Fold resistance, rCHIKV S454G + W456R: (EC50 for the variant)/(EC50 for the wt); for EC50: CPE reduction assay, Vero E6 cells; for Sensitivity or resistance of CHIKV nsP1-S454G+W456R to the compound: at the doses tested, Fig. 2
wt CHIKV nsP1 = wt CHIKV nsP1 (Chikungunya virus, UniProt Q8JUX6); assay type: biochemical; conditions: wt CHIKV nsP1, 10 μM SAM; for Inhibition of formation of the covalent [32P]m7GMP-nsP1 intermediate: inhibitor 0.5 to 32 μM, Fig. 3C
wt SFV nsP1 [2] = biological target: T1, wt SFV nsP1; assay type: biochemical; conditions: for Inhibition of formation of the covalent [32P]m7GMP-nsP1 complex: wt SFV nsP1, 100 μM SAM, inhibitor 50 μM to 1 mM, Fig. 3A
VEEV nsP1 = conditions: cited from earlier work
CHIKV nsP1 = conditions: enzymatic assays measuring either MTase or GTase activity; cited from earlier work
[3] = Chikungunya virus, Vero C1008, 96 h, read-out: EC50, concentration that reduces virus-induced CPE by 50%, CHIKV, multicycle CPE reduction assay, Vero E6 cells, 96 h
[4] = Chikungunya virus, Vero C1008, read-out: EC50 for wt CHIKV, Table 2, wt CHIKV, CPE reduction assay, Vero E6 cells

Row | Compound | CC50 (in vitro) [µM] | Fold resistance, rCHIKV P34S (rCHIKV P34S) | EC50 (rCHIKV P34S) [µM] | Fold resistance, rCHIKV G230R + K299E (rCHIKV G230R + K299E) | EC50 (rCHIKV G230R + K299E) [µM] | Sensitivity or resistance of CHIKV nsP1-G230R+K299E to the compound (rCHIKV G230R + K299E) | CC50 (Vero E6 cells; African green monkey) [µM] | EC50 (CHIKV; [3]) [µM] | EC50 (CHIKV; [4]) [µM] | Fold resistance, rCHIKV S454G + W456R (rCHIKV S454G + W456R) | EC50 (rCHIKV S454G + W456R) [µM] | Inhibition of formation of the covalent [32P]m7GMP-nsP1 complex (wt SFV nsP1 [2]) | Sensitivity or resistance of CHIKV nsP1-S454G+W456R to the compound (rCHIKV S454G + W456R) | Inhibition of formation of the covalent [32P]m7GMP-nsP1 intermediate (wt CHIKV nsP1) | Sensitivity or resistance of CHIKV nsP1-P34S to the compound (rCHIKV P34S) | further results
1 | Nc1ncnc2c1ncn2C1C(F)=C(CCO)C(O)C1O (stereo not drawn) [FHNA, 6′-fluoro-homoneplanocin A] | > 250 | 2.4 | 2.8 ± 0.3 | 8.6 | > 10 | resistant | > 250 | 1.2 ± 0.03 | 1.2 ± 0.03 | 1 | 1.2 ± 0.1 |  |  |  |  | Inhibition of formation of the covalent [32P]m7GMP-nsP1 intermediate (wt SFV nsP1 [1]; modified SFV nsP1 assay lacking DTT, not shown): to a lesser extent; Activity against SINV (SINV): inactive; EC50 (SFV; Semliki Forest virus, Vero C1008, 32 h): 3.9 to 5.2 µM; EC50 (SFV; 32 h): 5.2 ± 3.2 µM; Reduction of the [32P]m7GMP-nsP1 signal (wt CHIKV nsP1; with or without DTT, 12.5 to 500 μM compound, Fig. 3E): no reduction in the signal
2 | CCNc1nc(C)cc(N2CCN(C(=O)c3ccc(F)cc3)CC2)n1 [CHVB-032] | > 100 | 14.4 | 52.4 ± 0.8 | 1 | 3.4 ± 0.2 |  | > 100 | 3.4 ± 0.3 | 3.4 ± 0.3 | 29.4 | > 100 | completely blocked | completely resistant | in a dose-dependent manner |  | 
3 | Nc1ncnc2c1ncn2[C@@H]1O[C@H](C[C@@H](N)CC[C@H](N)C(=O)O)[C@@H](O)[C@H]1O [Sinefungin, reference compound] | > 1000 | <1 | 151 ± 2.5 | 1.5 | 274.5 ± 0.2 | sensitive | > 1000 | 185 ± 38.4 | 185 ± 38.4 | <1 | 110 ± 3.9 | very inefficient inhibitor | sensitive |  | sensitive | Effect on GTase activity in reactions lacking SAM (wt SFV nsP1 [2]; wt SFV nsP1, 50 μM sinefungin, no SAM, Fig. 3B): appeared to stimulate GTase activity; Inhibition of VEEV nsP1 (VEEV nsP1): inhibits; Inhibition of CHIKV nsP1 (CHIKV nsP1): inhibits; Reduction of the [32P]m7GMP-nsP1 signal (wt CHIKV nsP1; 1 mM compound, Fig. 3D): reduced the signal slightly; Reduction of the [32P]m7GMP-nsP1 signal (wt CHIKV nsP1; 125 to 500 μM compound, Fig. 3D): did not lead to any reduction in the signal
4 | 6′-β-Fluoro-homoaristeromycin [FHA] |  | 2.3 | 1.6 ± 0.2 | 14.3 | > 10 | resistant |  |  |  | 1 |  |  |  |  |  | CC50 (Vero E6 cells): > 250 µM; EC50 (CHIKV; CHIKV, multicycle CPE reduction assay, Vero E6 cells, 96 h, read-out: EC50, concentration that reduces virus-induced CPE by 50%): 0.7 ± 0.08 µM; EC50 (CHIKV; Table 2, wt CHIKV, CPE reduction assay, Vero E6 cells, read-out: EC50 for wt CHIKV): 0.7 ± 0.08 µM; Activity against SINV (SINV): inactive; EC50 (SFV; 32 h): 3.9 ± 3.5 µM
5 | CNc1ncnc2c1ncn2C1C(O)C(O)C(CCO)C1F (stereo not drawn) [FMA, 6′-β-fluoro-N^6-methyladenosine] |  |  |  |  |  |  |  |  |  |  |  |  |  |  |  | Activity in CHIKV CPE reduction assays (CHIKV; source of the data not stated): inactive
6 | NC(=O)c1nc(F)c[nH]c1=O [Favipiravir, reference compound] |  | 1.2 | 95.9 ± 12.8 | 1.7 | 135 ± 5 | sensitive |  |  | 79.8 ± 1.4 | 1.1 | 89.5 ± 0.2 |  | sensitive |  | sensitive | 
7 | Nc1ncnc2c1ncn2C1C(F)=C(CCO)C(=O)C1O (stereo not drawn) [3′-Keto form of FHNA] |  |  |  |  |  |  |  |  |  |  |  |  |  |  |  | Inhibition of formation of the covalent [32P]m7GMP-nsP1 intermediate (wt SFV nsP1 [1]; wt SFV nsP1): only partially inhibited
8 | CCNc1nc(C)cc(N2CCN(C(=O)c3ccc(C)cc3)CC2)n1 [CHVB-066] | 25 | 20.8 | > 12.5 | <1 | 0.3 ± 0.04 |  |  | < 1 | 0.6 ± 0.1 | 20.8 | > 12.5 | completely blocked |  | in a dose-dependent manner | completely resistant | Inhibition of GTase activity of VEEV nsP1 (VEEV nsP1): inhibit the GTase activity
9 | CCC1=NC2C(N=NN2c2cccc(OC(C)C)c2)C(=O)N1 (stereo not drawn) [MADTP-372] | > 100 | 9.3 | > 25 | <1 | 1.2 ± 0.2 |  | > 100 | 2.7 ± 0.2 | 2.7 ± 0.2 | 9.3 | > 25 | less effectively | cross-resistant | in a dose-dependent manner | completely resistant | Inhibition of GTase activity of VEEV nsP1 (VEEV nsP1): inhibit the GTase activity
